Data: publication PMC8401404 (Molecules, 2021)
Converted amounts (≈) assume the structure as drawn. Counter-ions that a name gives are not always drawn. Like-named read-outs stand apart in the source and are kept apart here.

Experiments:
S. aureus ATCC 29213 = assay: Broth microdilution testing (CLSI); type: cell-based, Staphylococcus aureus; settings: 16–24h at 37 °C, read-out: MIC S. aureus ATCC 29213
Description: (§1) Broth microdilution testing was performed according to CLSI (Clinical Laboratory Standards Institute) guidelines. MIC (minimal inhibitory concentration) value was defined as the last tested concentration of compound at which there is no visible growth of bacteria. […] Clinical and Laboratory Standards Institute (CLSI) guidelines.

E. coli ATCC 25922 = assay: Broth microdilution testing (CLSI); type: cell-based, Escherichia coli; settings: broth microdilution, 16–24h at 37 °C, read-out: MIC E. coli ATCC 25922
Description: as §1

S. cerevisiae ATCC 7752 = assay: Broth microdilution testing (CLSI); type: cell-based, Saccharomyces cerevisiae; settings: broth microdilution, 16–24h at 37 °C, read-out: MIC S. cerevisiae ATCC 7752
Description: as §1

HCC827 [1] = assay: Cytotoxicity (viability) assay, 3D hanging drop cell culture; settings: Homo sapiens, HCC827, 72 h, read-out: Cytotoxicity Assay IC50 ± SD; HCC827 3D
Description: (§2) MTS assay gives us information about the number of living cells, in this case, metabolically active cells, whereas the BrdU proliferation assay gives a measure of the cell population in active division phase. Both assays were performed in 2D and 3D assay formats. For the 2D cell assay format, we used classic two-dimensional in vitro assays and as a 3D assay we used a hanging drop proliferation cell assay as previously described. We explored the activity of compounds on three human lung cancer cell lines, A549, HCC827 and NCI-H358. The compound activity was also tested on human lung fibroblast cell line MRC-5. A two-dimensional in vitro viability assay was performed on the MRC-5 cell line to see if tested compounds are cytotoxic on normal cell lines in low concentrations. […] 7.1.
(§3) Test compounds were synthesized by a research group at the Department of Organic Chemistry, Faculty of Chemical Engineering and Technology, University of Zagreb. […] Compounds were diluted 1:3. We transferred 500 nL (for 2D cell culture) or 400 nL (for 3D cell culture) of the compound from a mother plate to test plate by using Mosquito (TTP labtech). DMSO percentage in test concentrations was 0.5–1.0%. Starting concentration of the test compounds and standard compound doxorubicin was 50 µM (2D cell culture) or 100 µM (3D cell culture).
(§4) Cells were grown in 96-well Perfecta 3D hanging drop plates 5000 cell/well for 4 days until spheres were formed (and checked under the microscope). After sphere formation cells were treated with compounds followed by 72 h incubation. Cell viability assay was performed according to the manufacturer’s instructions, using CellTiter GLO 3D for 3D cell culture (Promega); cell incubation was 5 min on the shaker followed by 25 min incubation in the dark. Plates were read using PE EnVision luminescence.
(§5) Calculation of IC50 data, curves and QC analysis was performed by using Excel tools and GraphPadPrism software (La Jolla, CA, USA), v. […] QC criteria parameters (Z’, S:B, R2, HillSlope) were checked for every IC50 curve.

NCI-H358 [2] = assay: as above; settings: Homo sapiens, NCI-H358, 72 h, read-out: Cytotoxicity Assay IC50 ± SD; NCI-H358 3D
Description: as §2, §3, §4, §5

A549 [3] = assay: as above; settings: Homo sapiens, A549, 72 h, read-out: Cytotoxicity Assay IC50 ± SD; A549 3D
Description: as §2, §3, §4, §5

[4] = MTS cytotoxicity assay, 2D cell culture, normal lung fibroblasts; settings: human
Description: as §2, §3
(§6) Cells were grown in 96-well cell star polystyrene plates. We seeded 10,000 cells/well in wells 4 h prior to the treatment with different compounds concentrations and incubated for 72 h. A cell viability assay was performed according to the manufacturer’s instructions, using CellTiter 96 aqueous solution, MTS kit (Promega, Madison, WI, USA). After 0.5–2 h of cell incubation with MTS in 2D cell culture, the plates were read using PE EnVision absorbance at 490 nm.
as §5

HCC827 [5] = assay: BrdU proliferation assay, 2D cell culture; type: cell-based, human; settings: Homo sapiens, HCC827, read-out: Proliferation Assay IC50 ± SD; HCC827 2D
Description: as §2, §3, §6
(§7) Proliferation assay was performed using Cell Proliferation ELISA, BrdU (Sigma, St. Louis, MO, USA). Briefly, 48 h hours after compound addition, 10 µM of BrdU was added to each well and incubated for the following 24 h. After incubation, a single cell suspension was made for 3D cell culture in the new 96-well plate. Plates were centrifuged and supernatants were removed from each plate (for 2D and 3D cell culture) followed by 60 min incubation at 60 °C. The rest of the proliferation assay was performed according to the manufacturer’s instructions.
as §5

NCI-H358 [6] = assay: BrdU proliferation assay, 2D cell culture; type: cell-based, human; settings: Homo sapiens, NCI-H358, 2D, n = 2, read-out: Proliferation Assay IC50 ± SD
Description: as §2, §3, §6, §7, §5

A549 [7] = assay: BrdU proliferation assay, 2D cell culture; type: cell-based, human; settings: Homo sapiens
Description: as §2, §3, §6, §7, §5

HCC827 [8] = assay: BrdU proliferation assay, 3D hanging drop cell culture; type: cell-based, human; settings: Homo sapiens, HCC827, read-out: Proliferation Assay IC50 ± SD; HCC827 3D
Description: as §2, §3, §4, §7, §5

NCI-H358 [9] = assay: as above; type: cell-based, human; settings: Homo sapiens, NCI-H358, 3D, n = 2, read-out: Proliferation Assay IC50 ± SD
Description: as §2, §3, §4, §7, §5

A549 [10] = assay: as above; type: cell-based, human; settings: Homo sapiens
Description: as §2, §3, §4, §7, §5

HCC827 [11] = assay: MTS cytotoxicity assay, 2D cell culture; settings: Homo sapiens, HCC827, 72 h, read-out: Cytotoxicity Assay IC50 ± SD; HCC827 2D
Description: as §2, §3, §6, §5

NCI-H358 [12] = assay: MTS cytotoxicity assay, 2D cell culture; settings: Homo sapiens, NCI-H358, 72 h, read-out: Cytotoxicity Assay IC50 ± SD; NCI-H358 2D
Description: as §2, §3, §6, §5

A549 [13] = assay: MTS cytotoxicity assay, 2D cell culture; settings: Homo sapiens, A549, 72 h, read-out: Cytotoxicity Assay IC50 ± SD; A549 2D, 72 h, MTS; n = 2
Description: as §2, §3, §6, §5

[14] = Staphylococcus aureus, ATCC29213, broth microdilution
[15] = Saccharomyces cerevisiae, ATCC7752

For Gentamycin [reference compound], which MIC (S. aureus ATCC 29213; broth microdilution) is on record?
Its MIC is 0.25 µM.

What about the MIC (E. coli ATCC 25922) of the same compound?
The MIC was 0.5 µM.

What about the MIC (S. cerevisiae ATCC 7752) of the same compound?
Its MIC is greater than 64 µM.

Which MIC (S. aureus ATCC 29213; [14]) does the source give for `C[C@@H](c1ncncc1F)[C@](O)(Cn1cncn1)c1ccc(F)cc1F` [Voriconazole, reference compound] here?
The MIC was greater than 64 µM.

And the MIC (E. coli ATCC 25922; Escherichia coli, ATCC25922)?
Its MIC is greater than 64 µM.

And the MIC (S. cerevisiae ATCC 7752; [15])?
Its MIC is less than 0.125 µM.

For `CC(C)NC(=N)c1ccc2[nH]c(-c3ccc(-c4ccc(Cl)cc4)o3)nc2c1` (as salt: hydrochloride) [Compound 14, 2-[5-(4-Chlorophenyl)furan-2-yl]-5(6)-isopropilamidinobenzimidazole hydrochloride], which melting point is on record?
Its melting point is 242 to 246 °C.

Which IC50 (HCC827 [1]) does the source give for `COc1cc2c(Nc3ccc(Br)cc3F)ncnc2cc1OCC1CCN(C)CC1` [Vandetanib, reference compound] here?
Its IC50 is 160 ± 40 nM.

And the IC50 (NCI-H358 [2])?
The IC50 was 380 ± 200 nM.

And the IC50 (A549 [3])?
The IC50 was greater than 50000 nM.

What about the IC50 at 72 h ([4]; MRC-5 normal lung fibroblasts, 2D culture) of the same compound?
Its IC50 at 72 h is 11100 nM.

What about the IC50 (HCC827 [5]) of the same compound?
Its IC50 is 200 ± 110 nM.

And the IC50 (NCI-H358 [6])?
Its IC50 is greater than 25000 nM.

What about the IC50 (A549 [7]; A549, 2D, BrdU, n = 2, read-out: Proliferation Assay IC50 ± SD) of the same compound?
The IC50 was greater than 25000 nM.

What about the IC50 (HCC827 [8]) of the same compound?
Its IC50 is 80 ± 20 nM.

And the IC50 (NCI-H358 [9])?
The IC50 was 380 ± 170 nM.

And the IC50 (A549 [10]; A549, 3D, BrdU, n = 2, read-out: Proliferation Assay IC50 ± SD)?
The IC50 was greater than 50000 nM.

And the IC50 (HCC827 [11])?
The IC50 was 580 ± 30 nM.

And the IC50 (NCI-H358 [12])?
The IC50 was 3120 nM.

What about the IC50 (A549 [13]) of the same compound?
Its IC50 is greater than 25000 nM.

Which melting point does the source give for `CC(C)NC(=N)c1ccc2nc(-c3ccc(-c4ccc(Cl)cc4)o3)sc2c1` (as salt: hydrochloride) [Compound 8, 2-[5-(4-Chlorophenyl)furan-2-yl]-6-N-isopropilamidinobenzothiazole hydrochloride] here?
The melting point was 204 to 208 °C.

With `CC(C)(O/N=C(\C(=O)N[C@@H]1C(=O)N2C(C(=O)[O-])=C(C[n+]3ccccc3)CS[C@H]12)c1csc(N)n1)C(=O)O` [Ceftazidime, reference compound] as the compound, how does the MIC (S. aureus ATCC 29213; [14]) read?
Its MIC is 16 µM (≈ 8.75 µg/mL).

And the MIC (E. coli ATCC 25922; Escherichia coli, ATCC25922)?
The MIC was less than 0.125 µM.

What about the MIC (S. cerevisiae ATCC 7752; [15]) of the same compound?
Its MIC is greater than 64 µM.

With `CN[C@@H]1C[C@H]2O[C@@](C)([C@@H]1OC)n1c3ccccc3c3c4c(c5c6ccccc6n2c5c31)C(=O)NC4` [Staurosporine, reference compound] as the compound, how does the IC50 at 72 h [4] read?
Its IC50 at 72 h is 31 ± 11 nM.

What about the IC50 (HCC827 [5]) of the same compound?
Its IC50 is 4 ± 2 nM.

What about the IC50 (A549 [7]; A549, read-out: Proliferation Assay IC50 ± SD, A549 2D) of the same compound?
The IC50 was 35 ± 17 nM.

What about the IC50 (A549 [10]; A549, read-out: Proliferation Assay IC50 ± SD, A549 3D) of the same compound?
Its IC50 is 110 ± 1 nM.

What about the IC50 (HCC827 [11]) of the same compound?
Its IC50 is 33 ± 2 nM.
